Measured values published in PubChem BioAssay AID2060620 (Molecular Pharmacology Branch, DTP, NCI, 2025).

Tested on: 328373-195-R-J1-PDC complex spheroids, viability % test/control
Experiment: Anticancer human tumor 328373-195-R-J1-PDC patient-derived head and neck squamous carcinoma cell line growth inhibition [CLK]
Conditions: for IC50: curve of first compound; for viability, T/C: stronger effect = lower value; active means viability on the fitted dose curve at most 10% of control; inactive means the rest
In short: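 Patient-derived tumor cells grown as complex spheroids with HUVEC endothelial cells and mesenchymal stem cells, treated with drug combinations. Concentrations descend in half-log steps from near clinical Cmax, or from 10 microM if Cmax unknown.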

[1] = second compound 0.0316 µM, first compound 0.0316 µM
[2] = second compound 0.0316 µM, first compound 0.1 µM
[3] = second compound 0.0316 µM, first compound 0.316 µM
[4] = second compound 0.0316 µM, first compound 1 µM
[5] = second compound 0.1 µM, first compound 0.0316 µM
[6] = second compound 0.1 µM, first compound 0.1 µM
[7] = second compound 0.1 µM, first compound 0.316 µM
[8] = second compound 0.1 µM, first compound 1 µM
[9] = second compound 0.316 µM, first compound 0.0316 µM
[10] = second compound 0.316 µM, first compound 0.1 µM
[11] = second compound 0.316 µM, first compound 0.316 µM
[12] = second compound 0.316 µM, first compound 1 µM
[13] = second compound 1 µM, first compound 0.0316 µM
[14] = second compound 1 µM, first compound 0.1 µM
[15] = second compound 1 µM, first compound 0.316 µM
[16] = second compound 1 µM, first compound 1 µM
[17] = second compound 3.16 µM, first compound 0.0316 µM
[18] = second compound 3.16 µM, first compound 0.1 µM
[19] = second compound 3.16 µM, first compound 0.316 µM
[20] = second compound 3.16 µM, first compound 1 µM
[21] = second compound 10 µM, first compound 0.0316 µM
[22] = second compound 10 µM, first compound 0.1 µM
[23] = second compound 10 µM, first compound 0.316 µM
[24] = second compound 10 µM, first compound 1 µM
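Further: spheroids exposed to the agents for 7 days.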

COc1c(OCCCN2CCOCC2)ccc2c3n(c(=NC(=O)c4cnc(N)nc4)nc12)CCN3 + CNC(=O)c1ccc(Nc2nc(OC3CCCC3)c3c(-c4ccc5nc(C)oc5c4)c[nH]c3n2)c(OC)c1
inactive: viability, T/C (second compound 0.0316 µM, first compound 0.00316 µM) 68.3% | viability, T/C (second compound 0.0316 µM, first compound 0.01 µM) 67.3% | viability, T/C [1] 68.2% | viability, T/C [2] 60.7% | viability, T/C [3] 24.9% | viability, T/C (second compound 0.1 µM, first compound 0.00316 µM) 10.9% | viability, T/C (second compound 0.1 µM, first compound 0.01 µM) 12.2% | viability, T/C [5] 11.8% | viability, T/C (second compound 0.316 µM, first compound 0.00316 µM) 10.6% | viability, T/C (second compound 0.316 µM, first compound 0.01 µM) 11.2% | viability, T/C (second compound 1 µM, first compound 0.00316 µM) 9.61% | viability, T/C (second compound 1 µM, first compound 0.01 µM) 10.8% | viability, T/C (second compound 10 µM, first compound 0.00316 µM) 12.8% | viability, T/C (second compound 10 µM, first compound 0.01 µM) 11% | viability, T/C [21] 13.6%
< 3.16 nM: IC50 (second compound 0.1 µM) | IC50 (second compound 0.316 µM) | IC50 (second compound 1 µM) | IC50 (second compound 3.16 µM) | IC50 (second compound 10 µM)
active: viability, T/C [4] 8.91% | viability, T/C [6] 12.3% | viability, T/C [7] 7.7% | viability, T/C [8] 6.41% | viability, T/C [9] 10% | viability, T/C [10] 9.38% | viability, T/C [11] 6.22% | viability, T/C [12] 5.91% | viability, T/C [13] 10.5% | viability, T/C [14] 9.83% | viability, T/C [15] 7.75% | viability, T/C [16] 4.65% | viability, T/C (second compound 3.16 µM, first compound 0.00316 µM) 9.58% | viability, T/C (second compound 3.16 µM, first compound 0.01 µM) 11.5% | viability, T/C [17] 10.6% | viability, T/C [18] 9.71% | viability, T/C [19] 8.29% | viability, T/C [20] 7.29% | viability, T/C [22] 11.9% | viability, T/C [23] 8.72% | viability, T/C [24] 5.52%
141 nM: IC50 (second compound 0.0316 µM)

C=CC(=O)N1CCN(c2nc(=O)n(-c3c(C)ccnc3C(C)C)c3nc(-c4c(O)cccc4F)c(F)cc23)C(C)C1 (centres undefined) + CNC(=O)c1ccc(Nc2nc(OC3CCCC3)c3c(-c4ccc5nc(C)oc5c4)c[nH]c3n2)c(OC)c1
< 31.6 nM: IC50 (second compound 0.1 µM) | IC50 (second compound 0.316 µM) | IC50 (second compound 1 µM) | IC50 (second compound 3.16 µM) | IC50 (second compound 10 µM)
> 10000 nM: IC50 (second compound 0.0316 µM)
inactive: viability, T/C [1] 57.3% | viability, T/C [2] 59.7% | viability, T/C [3] 60.2% | viability, T/C [4] 64.9% | viability, T/C (second compound 0.0316 µM, first compound 3.16 µM) 65.1% | viability, T/C (second compound 0.0316 µM, first compound 10 µM) 47.7% | viability, T/C [5] 11.2% | viability, T/C [6] 10.2% | viability, T/C [7] 11.6% | viability, T/C [8] 12.8% | viability, T/C (second compound 0.1 µM, first compound 3.16 µM) 13.2% | viability, T/C (second compound 0.1 µM, first compound 10 µM) 9.6% | viability, T/C [9] 8.33% | viability, T/C [10] 10.6% | viability, T/C [11] 9.38% | viability, T/C [12] 10.4% | viability, T/C (second compound 0.316 µM, first compound 3.16 µM) 13.9% | viability, T/C (second compound 0.316 µM, first compound 10 µM) 10.3% | viability, T/C [13] 10.1% | viability, T/C [14] 9.55% | viability, T/C [15] 9.73% | viability, T/C [16] 10.4% | viability, T/C (second compound 1 µM, first compound 3.16 µM) 13.2% | viability, T/C (second compound 1 µM, first compound 10 µM) 8.42% | viability, T/C [17] 10.1% | viability, T/C [18] 13.2% | viability, T/C [19] 10.9% | viability, T/C [20] 10.9% | viability, T/C (second compound 3.16 µM, first compound 3.16 µM) 15.1% | viability, T/C (second compound 3.16 µM, first compound 10 µM) 10.7% | viability, T/C [21] 12.8% | viability, T/C [22] 11.7% | viability, T/C [23] 12.2% | viability, T/C [24] 13.3% | viability, T/C (second compound 10 µM, first compound 3.16 µM) 14.5% | viability, T/C (second compound 10 µM, first compound 10 µM) 8.55%
